DBAASP
Values after ≈ are worked out from the molar mass of the structure shown. Values joined by “and” are separate entries in the source; they are usually repeats but may differ in a detail not shown here. Equal entries are not always repeated.

Tests used:
Test in all cases: ≥ marks a high value that may be exact or a test limit, other limits are often not marked, values filed in µg/mL are converted to µM
[1] = tested on: Xanthomonas axonopodis pv. phaseoli ATCC 9563
[2] = tested on: Pseudomonas syringae
[3] = tested on: Pseudomonas aeruginosa LES400
[4] = tested on: Staphylococcus aureus ATCC 25923
[5] = tested on: Escherichia coli ESBL 63103
[6] = tested on: Enterococcus faecium mic80
[7] = tested on: Candida albicans C627
[8] = tested on: Pseudomonas aeruginosa H103
[9] = tested on: Pseudomonas aeruginosa 213
[10] = tested on: Staphylococcus aureus C623
[11] = tested on: Staphylococcus aureus
[12] = tested on: Salmonella typhimurium
[13] = tested on: Enterococcus faecalis VR
[14] = tested on: Pseudomonas aeruginosa
[15] = tested on: Bacillus subtilis
[16] = tested on: Staphylococcus aureus MR
[17] = tested on: Escherichia coli
[18] = tested on: Staphylococcus epidermidis
[19] = tested on: Candida albicans NCPF 1467
[20] = tested on: Staphylococcus aureus NCTC 10788
[21] = tested on: Staphylococcus aureus ATCC 12493
[22] = tested on: Escherichia coli NCTC 10418
[23] = tested on: Candida glabrata ATCC 15126
[24] = tested on: Klebsiella pneumoniae ATCC 700603
[25] = tested on: Pseudomonas aeruginosa ATCC 9027
[26] = tested on: Staphylococcus aureus ATCC 9144
[27] = tested on: Enterococcus faecalis PCM 2673
[28] = tested on: Escherichia coli ATCC 25922
[29] = tested on: Aspergillus niger ATCC 16404
[30] = tested on: Candida albicans ATCC 10231
[31] = tested on: Streptococcus pneumoniae ATCC 49619
[32] = tested on: Escherichia coli ATCC 23506
[33] = tested on: Staphylococcus aureus 209P
[34] = tested on: Klebsiella pneumoniae 1
[35] = tested on: Pseudomonas aeruginosa PAO1
[36] = tested on: Staphylococcus aureus ATCC 33591
[37] = tested on: Escherichia coli C600
[38] = tested on: Pseudomonas aeruginosa 2
[39] = tested on: Escherichia coli 1
[40] = tested on: Klebsiella pneumoniae 2
[41] = tested on: Pseudomonas aeruginosa 1

SMILES: CC[C@H](C)[C@H](NC(=O)[C@H](CCCCN)NC(=O)[C@H](CC(N)=O)NC(=O)[C@H](CCCCN)NC(=O)[C@H](CC(C)C)NC(=O)[C@H](Cc1ccc(O)cc1)NC(=O)[C@H](CCC(N)=O)NC(=O)[C@H](CCCN=C(N)N)NC(=O)[C@@H](NC(=O)[C@@H](NC(=O)[C@H](CCCCN)NC(=O)[C@H](CCCCN)NC(=O)CNC(=O)[C@H](C)N)[C@@H](C)O)[C@@H](C)CC)C(=O)N[C@@H](CCCCN)C(=O)N[C@@H](CCCCN)C(=O)N[C@@H](CCCCN)C(=O)NCC(=O)N[C@@H](CCCN=C(N)N)C(=O)N[C@@H](CCCCN)C(=O)N[C@@H](Cc1c[nH]c2ccccc12)C(=O)N[C@H](C(=O)N[C@H](C(=O)N[C@@H](C)C(=O)N[C@@H](Cc1c[nH]c2ccccc12)C(=O)O)[C@@H](C)CC)C(C)C [AGKKTIRQYLKNKIKKKGRKWVIAW]
- MIC [1]: 2 µM (≈ 6.09 µg/mL)
- MIC [2]: 8 µM (≈ 24.3 µg/mL)

SMILES: CC[C@H](C)[C@H](NC(=O)[C@H](Cc1c[nH]c2ccccc12)NC(=O)[C@H](CCCN=C(N)N)NC(=O)[C@H](Cc1c[nH]c2ccccc12)NC(=O)[C@H](Cc1c[nH]c2ccccc12)NC(=O)[C@H](CCCN=C(N)N)NC(=O)[C@H](CCCCN)NC(=O)[C@H](Cc1c[nH]c2ccccc12)NC(=O)[C@@H](N)CCCN=C(N)N)C(=O)O [RWKRWWRWI]
- MIC [3]: 21.7 µM (≈ 32 µg/mL)
- MIC [4]: 5.43 µM (≈ 8 µg/mL)
- MIC [5]: 10.9 µM (≈ 16 µg/mL)
- MIC [6]: 21.7 µM (≈ 32 µg/mL)
- MIC [7]: 2.72 µM (≈ 4 µg/mL)
- MIC [8]: 2.72 µM (≈ 4 µg/mL)
- MIC [9]: 21.7 µM (≈ 32 µg/mL)
- MIC [10]: 2.72 µM (≈ 4 µg/mL)

SMILES: CC(C)C[C@H](NC(=O)CNC(=O)[C@H](C)NC(=O)[C@H](CCCN=C(N)N)NC(=O)[C@H](CO)NC(=O)[C@H](CO)NC(=O)[C@H](CCCN=C(N)N)NC(=O)[C@@H](N)[C@@H](C)O)C(=O)N[C@@H](CCC(N)=O)C(=O)N[C@@H](Cc1c[nH]c2ccccc12)C(=O)N1CCC[C@H]1C(=O)N[C@H](C(=O)NCC(=O)N[C@@H](CCCN=C(N)N)C(=O)N[C@H](C(=O)N[C@@H](Cc1cnc[nH]1)C(=O)N[C@@H](CCCN=C(N)N)C(=O)N[C@@H](CC(C)C)C(=O)N[C@@H](CC(C)C)C(=O)N[C@@H](CCCN=C(N)N)C(=O)N[C@@H](CCCCN)C(=O)O)C(C)C)C(C)C [TRSSRAGLQWPVGRVHRLLRK]
- MIC [11]: 1 µM (≈ 2.47 µg/mL)
- MIC [12]: 0.5 µM (≈ 1.24 µg/mL)
- MIC [13]: 1 µM (≈ 2.47 µg/mL)
- MIC [14]: 2 µM (≈ 4.95 µg/mL)
- MIC [15]: 0.5 µM (≈ 1.24 µg/mL)
- MIC [16]: 0.707 µM (≈ 1.75 µg/mL)
- MIC [17]: 1 µM (≈ 2.47 µg/mL)
- MIC [18]: 2 µM (≈ 4.95 µg/mL)

SMILES: CC(C)C[C@H](NC(=O)[C@H](CC(C)C)NC(=O)[C@H](CC(C)C)NC(=O)[C@@H]1CCCN1C(=O)[C@H](CC(C)C)NC(=O)[C@@H](N)Cc1ccccc1)C(=O)N[C@@H](C)C(=O)NCC(=O)N[C@@H](CC(C)C)C(=O)N1CCC[C@H]1C(=O)N[C@@H](CCCCN)C(=O)N[C@@H](Cc1ccccc1)C(=O)N[C@@H](CC(C)C)C(=O)N[C@H]1CSSC[C@@H](C(=O)O)NC(=O)[C@H](CCCCN)NC(=O)[C@H](CCCCN)NC(=O)[C@H](Cc2ccccc2)NC(=O)[C@H](C(C)C)NC(=O)[C@H](CC(C)C)NC1=O [FLPLLLAGLPKFLCLVFKKC]
- MIC [19]: 16 µM (≈ 36.2 µg/mL)
- MIC [20]: 16 µM (≈ 36.2 µg/mL)
- MIC [21]: 16 µM (≈ 36.2 µg/mL)
- MIC [22]: ≥ 512 µM

SMILES: CC[C@H](C)[C@H](NC(=O)CNC(=O)[C@H](CCCN=C(N)N)NC(=O)[C@@H](NC(=O)[C@H](CC(C)C)NC(=O)[C@H](CO)NC(=O)CNC(=O)[C@@H](NC(=O)[C@@H](N)CC(C)C)[C@@H](C)CC)C(C)C)C(=O)N[C@@H](CC(C)C)C(=O)N1CCC[C@H]1C(=O)N[C@@H](CC(C)C)C(=O)N[C@@H](Cc1ccccc1)C(N)=O [LIGSLVRGILPLF]
- MIC [23]: ≥ 183 µM
- MIC [24]: 91.6 µM (≈ 128 µg/mL)
- MIC [25]: 183 µM (≈ 256 µg/mL)
- MIC [26]: ≥ 45.8 µM
- MIC [27]: ≥ 183 µM
- MIC [28]: 183 µM (≈ 256 µg/mL)
- MIC [4]: 45.8 µM (≈ 64 µg/mL)
- MIC [29]: ≥ 183 µM
- MIC [30]: 183 µM (≈ 256 µg/mL)
- MIC [31]: ≥ 183 µM
- MIC [32]: ≥ 183 µM

SMILES: CC(C)[C@@H]1NC(=O)CNC(=O)[C@H](CCCN=C(N)N)NC(=O)[C@H](C(C)C)NC(=O)[C@H](CCCN=C(N)N)NC(=O)[C@H](C)NC(=O)[C@H](Cc2ccc(O)cc2)NC(=O)[C@H](C(C)C)NC(=O)[C@@H](NC(=O)[C@H](Cc2c[nH]c3ccccc23)NC(=O)[C@@H](N)CCCN=C(N)N)CSSC[C@@H](C(=O)N[C@@H](Cc2c[nH]c3ccccc23)C(=O)O)NC(=O)[C@H](CCCN=C(N)N)NC(=O)[C@H](CCCN=C(N)N)NC(=O)[C@H](Cc2ccc(O)cc2)NC(=O)[C@H](CCCN=C(N)N)NC1=O [RWCVYARVRGVRYRRCW]
- MIC [33]: 1.56 µM (≈ 3.56 µg/mL)
- MIC [34]: 1 µM and 2 µM
- MIC [35]: 6.25 µM (≈ 14.3 µg/mL)
- MIC [36]: 0.06 µM (≈ 0.137 µg/mL)
- MIC [37]: 1.56 µM (≈ 3.56 µg/mL)
- MIC [38]: 4 µM (≈ 9.13 µg/mL)
- MIC [39]: 1 µM and 0.5 µM
- MIC [40]: 2 µM (≈ 4.57 µg/mL)
- MIC [17]: 1 µM (≈ 2.28 µg/mL)
- MIC [41]: 2 µM and 4 µM
